Test [1] concerns primary invasive breast cancer. The settings on record: women at high risk for breast cancer; cited from earlier work.
Another test concerns TNF-RE-tk-Luc. The experiment in a line: Antiestrogen effect on TNF-RE-tk-Luc (Example 2). The class given is cell-based. The settings on record: for effect on the repression induced by E2: TNF-RE-tk-Luc; for activation of TNF-RE-tk-Luc: antiestrogens, in contrast to E2. Here is the method:
(§1) Plasmid Construction. […] ERβ mutants were created with QuikChange site-directed mutagenesis kits (Stratagene), by using oligonucleotides containing the mutation. The mutants were sequenced with Sequenase kits (Amersham Pharmacia) to verify the presence of the mutation.
(§2) U937 cells were maintained as described previously, whereas U2OS, MDA-MB435, and MCF-7 cells were maintained and subcultured in phenol red-free Dulbecco's modified Eagle's medium/F-12 media containing 5% fetal bovine serum, 2 mM glutamine, 50 units/ml penicillin, and 50 μg/ml streptomycin. For experiments, cells were collected, transferred to a cuvette, and then electroporated with a Bio-Rad gene pulser as described previously using 3 μg of reporter plasmid and 1 μg of ERα or ERβ expression vectors. After electroporation, the cells were re-suspended in media and plated at 1 ml/dish in 12-well multiplates. […] The concentration of hormone required to produce a half-maximal induction (EC50) or inhibition (IC50) of luciferase activity was calculated with the Prism curve-fitting program (Graph Pad Software, version 2.0b). […] The cells were plated in duplicate at a density of 25,000 cells/35-mm plate in tissue culture medium containing 3% stripped fetal bovine serum. […] After 8 days the cells were counted with a Coulter counter.

Test [2] deals with estrogen receptor-positive breast cancer. The following applies: five years of therapy; cited from earlier work.
The test system of another test is breast cancer. The settings on record: among 5129 women in the treatment group, median follow-up 40 months; cited from earlier work.
In the next test the test system is ERα or ERβ. As to the kind of experiment: ERE-tk-Luc luciferase activation in U937 cells transfected with ERα or ERβ. The class given is cell-based. The settings on record: human monocytic U937 cells. Here is the method:
as §1, §2

Test [3] has as its target T1, ERβ (Homo sapiens, UniProt Q92731). The experiment in a line: Repression of TNF-α activation of TNF-RE-tk-Luc in U2OS cells, ERβ. Details: expressed in transfected cells; host or cells: U2OS (human osteosarcoma). The class given is cell-based. On the procedure:
as §2
The extracts (a and b) were than decanted and only the soluble material was used.

The target of test [4] is T1, ERβ. The following applies: in the presence of ERβ. Here is the method: as §1, §2

The values that follow come from US7815949B2, “Estrogenic extracts of Morus alba and uses thereof” (BioNovo, Inc., priority 2004, dated 2010).

T1 sequence (Q92731 whole entry): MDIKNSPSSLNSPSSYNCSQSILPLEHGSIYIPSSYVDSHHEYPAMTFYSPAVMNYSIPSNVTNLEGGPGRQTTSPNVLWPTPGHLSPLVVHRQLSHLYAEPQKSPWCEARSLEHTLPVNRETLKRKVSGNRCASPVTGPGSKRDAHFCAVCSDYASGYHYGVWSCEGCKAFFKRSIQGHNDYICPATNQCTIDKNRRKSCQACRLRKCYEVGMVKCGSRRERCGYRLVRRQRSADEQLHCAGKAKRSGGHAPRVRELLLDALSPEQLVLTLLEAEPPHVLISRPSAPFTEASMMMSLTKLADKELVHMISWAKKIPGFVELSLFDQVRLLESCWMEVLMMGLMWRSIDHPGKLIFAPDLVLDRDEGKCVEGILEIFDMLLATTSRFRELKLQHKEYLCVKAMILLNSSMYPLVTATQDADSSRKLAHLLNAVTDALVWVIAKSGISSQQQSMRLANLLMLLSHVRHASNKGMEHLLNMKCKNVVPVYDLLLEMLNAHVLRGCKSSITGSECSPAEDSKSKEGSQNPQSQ

For the compound `CC/C(=C(\c1ccccc1)c1ccc(OCCN(C)C)cc1)c1ccccc1` [tamoxifen], the “reduction of the risk of primary invasive breast cancer” value in test [1] is on record as 49%. In the test with TNF-RE-tk-Luc, the “effect on the repression induced by E2” value is “abolished” and the “activation of TNF-RE-tk-Luc” value was determined as 2 fold. In addition, in test [2], the “reduction of mortality from breast cancer” value is given as 22% and the “reduction of the risk of recurrences” value was 42%.
Consider `O=C(c1ccc(OCCN2CCCCC2)cc1)c1c(-c2ccc(O)cc2)sc2cc(O)ccc12` [raloxifene], for which the “cases of breast cancer” value in the test on breast cancer is 13 cases. In addition, in the test on TNF-RE-tk-Luc, the “effect on the repression induced by E2” value is given as “abolished” and the “activation of TNF-RE-tk-Luc” value turned out to be 2 fold.
Take `C[C@]12CC[C@@H]3c4ccc(O)cc4CC[C@H]3[C@@H]1CC[C@@H]2O` [E2, estradiol]: the “greater activation of the ERE in the presence of ERα compared to ERβ” value in the test on ERα or ERβ was determined as 10 fold. Moreover, the “repression of TNF-α activation of TNF-RE” value at ERβ [3] stood at 100%. Further, the “repression of TNF-α activation of TNF-RE-tk-Luc” value at ERβ [4] is given as 60-80%.
Regarding `C[C@]12CC[C@@H]3c4ccc(O)cc4C[C@@H](CCCCCCCCC[S+]([O-])CCCC(F)(F)C(F)(F)F)[C@H]3[C@@H]1CC[C@@H]2O` (stereo partly shown) [ICI 182, 780], in the test on TNF-RE-tk-Luc, the “effect on the repression induced by E2” value is listed as “abolished” and the “activation of TNF-RE-tk-Luc” value is reported as 2 fold.
